Source: patent US20080312184A1 (priority 2005, published 2008)

Assays:
[1] = test system: alternaria leaf spot pathogen of apples; assay: Control Test on Alternaria Leaf Spot of Apples; format: in vivo, apples (cultivar: ourin); settings: Table 5, single active ingredient, examined after 20 days
Description: After a liquid chemical was dried, 10 trees attacked by alternaria leaf spot pathogen of apples which were previously arranged to be diseased were placed on the windward side and apples of test pots placed on the leeward side by wind of an air conditioner were wind-inoculated.

[2] = test system: brown patch pathogen; assay: Control Test on Brown Patch of Turf Grass; format: in vivo, grass (cultivar: Pentocross); settings: Table 6, single active ingredient, soaked into soil, kept for 20 days
Description: Then, the area ratio of brown patch pathogen-attacked portion to the whole surface of the pot was examined according to the same index as in Test Example 1.

## CC(C)CC(C)c1sccc1NC(=O)c1cn(C)nc1C(F)(F)F (racemic) [P (penthiopyrad), (RS)—N-[2-(1,3-dimethylbutyl)thiophen-3-yl]-1-methyl-3-tri fluoromethyl-1H-pyrazole-4-carboxamide]
[1]; treated concentration 10 ppm
  Control Value: 50
[2]; treated concentration 10 ppm
  Control Value: 53

## CCCCCCCCCCCCNC(=N)N [Dodine, dodine]
[1]; treated concentration 50 ppm
  Control Value: 44

## O=C1C(Cl)=C(Cl)C(=O)N1c1ccc(F)cc1 [Fluoroimide, fluoroimide]
[1]; treated concentration 30 ppm
  Control Value: 45

## Clc1ccc(CSC(Cn2cncn2)=Nc2ccc(Cl)cc2Cl)cc1 [Imibenconazole, imibenconazole]
[1]; treated concentration 10 ppm
  Control Value: 42

## CC1(C)COC(C)(CCCc2ccc(Cl)cc2)N1C(=O)n1ccnc1.CC1(C)COC(C)(CCCc2ccc(Cl)cc2)N1C(=O)n1ccnc1.O=C(O)/C=C/C(=O)O (centres unmarked) [Oxpoconazole fumarate, oxpoconazole fumarate]
[1]; treated concentration 10 ppm
  Control Value: 46

## CC1=C(C(=O)Nc2ccccc2)S(=O)(=O)CCO1 [Oxycarboxin, oxycarboxin]
[2]; treated concentration 20 ppm
  Control Value: 42

## C[Si](C)(C)CC(O)(Cn1cncn1)c1ccc(F)cc1 (centres unmarked) [Simeconazole, simeconazole]
[2]; treated concentration 10 ppm
  Control Value: 48
